Assay results: ChEMBL document CHEMBL4507311, “Data for DCP probe A-1155463” (2021)

Assays:
[1] = target: Serine/threonine-protein kinase BRSK2 (Homo sapiens) (UniProt Q8IWQ3); details: Compound concentration 1000.0 nM
[2] = target: Tyrosine-protein kinase BTK (Homo sapiens) (UniProt Q06187); details: Compound concentration 1000.0 nM
[3] = target: Calcium/calmodulin-dependent protein kinase type II subunit delta (Homo sapiens) (UniProt Q13557); details: Compound concentration 1000.0 nM
[4] = target: Calcium/calmodulin-dependent protein kinase type IV (Homo sapiens) (UniProt Q16566); details: Compound concentration 1000.0 nM
Calcium/calmodulin-dependent protein kinase type IV (Homo sapiens), sequence (Q16566 whole entry): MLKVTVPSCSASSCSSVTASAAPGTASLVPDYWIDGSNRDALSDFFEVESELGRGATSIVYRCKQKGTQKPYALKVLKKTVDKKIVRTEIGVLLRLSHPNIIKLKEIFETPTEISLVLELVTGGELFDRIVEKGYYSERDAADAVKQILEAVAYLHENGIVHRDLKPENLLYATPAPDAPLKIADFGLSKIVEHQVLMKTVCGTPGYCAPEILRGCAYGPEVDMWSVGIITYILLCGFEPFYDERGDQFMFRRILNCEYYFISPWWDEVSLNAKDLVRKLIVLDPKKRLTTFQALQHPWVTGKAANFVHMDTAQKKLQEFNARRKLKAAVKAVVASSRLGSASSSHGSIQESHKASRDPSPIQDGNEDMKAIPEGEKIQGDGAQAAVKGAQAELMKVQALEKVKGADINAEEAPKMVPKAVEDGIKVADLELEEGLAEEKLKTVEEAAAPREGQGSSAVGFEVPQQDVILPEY

[5] = target: Calcium/calmodulin-dependent protein kinase kinase 1 (Homo sapiens) (UniProt Q8N5S9); details: Compound concentration 1000.0 nM
[6] = target: Cyclin-dependent kinase 8 (Homo sapiens) (UniProt P49336); details: Compound concentration 1000.0 nM
[7] = target: Casein kinase I isoform gamma-3 (Homo sapiens) (UniProt Q9Y6M4); details: Compound concentration 1000.0 nM
Casein kinase I isoform gamma-3 (Homo sapiens), sequence (Q9Y6M4 whole entry, looked up, canonical isoform): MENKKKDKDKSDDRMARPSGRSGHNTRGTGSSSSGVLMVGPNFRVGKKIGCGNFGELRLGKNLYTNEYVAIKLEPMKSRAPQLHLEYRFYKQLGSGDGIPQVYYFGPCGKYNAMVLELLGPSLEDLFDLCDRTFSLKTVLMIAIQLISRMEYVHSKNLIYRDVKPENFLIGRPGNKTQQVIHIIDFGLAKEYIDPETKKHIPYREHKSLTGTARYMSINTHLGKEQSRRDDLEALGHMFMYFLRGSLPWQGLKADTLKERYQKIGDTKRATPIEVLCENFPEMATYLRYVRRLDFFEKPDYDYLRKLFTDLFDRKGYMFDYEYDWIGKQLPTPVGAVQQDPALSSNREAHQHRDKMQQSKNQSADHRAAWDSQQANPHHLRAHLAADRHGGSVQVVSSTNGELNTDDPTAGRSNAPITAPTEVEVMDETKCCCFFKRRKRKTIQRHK

[8] = target: Megakaryocyte-associated tyrosine-protein kinase (Homo sapiens) (UniProt P42679); details: Compound concentration 1000.0 nM
[9] = target: Myotonin-protein kinase (Homo sapiens) (UniProt Q09013); details: Compound concentration 1000.0 nM
Myotonin-protein kinase (Homo sapiens), sequence (Q09013 whole entry): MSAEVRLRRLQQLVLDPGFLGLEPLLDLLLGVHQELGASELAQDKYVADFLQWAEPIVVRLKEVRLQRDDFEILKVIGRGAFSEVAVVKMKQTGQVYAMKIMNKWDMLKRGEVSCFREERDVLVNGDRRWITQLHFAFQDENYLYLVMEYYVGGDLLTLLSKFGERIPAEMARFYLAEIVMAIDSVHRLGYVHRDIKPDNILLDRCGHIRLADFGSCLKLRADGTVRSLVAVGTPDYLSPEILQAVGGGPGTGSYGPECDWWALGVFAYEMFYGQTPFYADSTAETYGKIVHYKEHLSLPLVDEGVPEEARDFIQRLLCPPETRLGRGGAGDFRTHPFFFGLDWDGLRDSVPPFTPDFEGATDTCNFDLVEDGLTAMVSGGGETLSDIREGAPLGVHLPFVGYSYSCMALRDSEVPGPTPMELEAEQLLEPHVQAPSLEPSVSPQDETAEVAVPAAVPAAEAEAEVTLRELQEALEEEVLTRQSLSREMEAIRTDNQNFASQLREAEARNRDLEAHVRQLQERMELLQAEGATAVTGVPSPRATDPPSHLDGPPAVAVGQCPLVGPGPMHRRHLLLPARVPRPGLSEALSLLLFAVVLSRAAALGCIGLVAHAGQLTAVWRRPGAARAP

[10] = target: Dual specificity tyrosine-phosphorylation-regulated kinase 2 (Homo sapiens) (UniProt Q92630); details: Compound concentration 1000.0 nM
[11] = target: Eukaryotic translation initiation factor 2-alpha kinase 1 (Homo sapiens) (UniProt Q9BQI3); details: Compound concentration 1000.0 nM
[12] = target: Mitogen-activated protein kinase 7 (Homo sapiens) (UniProt Q13164); details: Compound concentration 1000.0 nM
[13] = system: Receptor-type tyrosine-protein kinase FLT3 (Homo sapiens), P36888 [D835V]; details: Compound concentration 1000.0 nM
[14] = target: Serine/threonine-protein kinase haspin (Homo sapiens) (UniProt Q8TF76); details: Compound concentration 1000.0 nM
[15] = target: Interleukin-1 receptor-associated kinase 1 (Homo sapiens) (UniProt P51617); details: Compound concentration 1000.0 nM
[16] = target: Tyrosine-protein kinase ITK/TSK (Homo sapiens) (UniProt Q08881); details: Compound concentration 1000.0 nM
[17] = system: Mast/stem cell growth factor receptor Kit (Homo sapiens), P10721 [D816H]; details: Compound concentration 1000.0 nM
[18] = system: Mast/stem cell growth factor receptor Kit (Homo sapiens), P10721 [V559D]; details: Compound concentration 1000.0 nM
[19] = target: LIM domain kinase 2 (Homo sapiens) (UniProt P53671); details: Compound concentration 1000.0 nM
[20] = target: Leucine-rich repeat serine/threonine-protein kinase 2 (Homo sapiens) (UniProt Q5S007); details: Compound concentration 1000.0 nM
[21] = target: Mitogen-activated protein kinase kinase kinase 1 (Homo sapiens) (UniProt Q13233); details: Compound concentration 1000.0 nM
[22] = target: Dual specificity mitogen-activated protein kinase kinase 1 (Homo sapiens) (UniProt Q02750); details: Compound concentration 1000.0 nM
Dual specificity mitogen-activated protein kinase kinase 1 (Homo sapiens), sequence (Q02750 whole entry): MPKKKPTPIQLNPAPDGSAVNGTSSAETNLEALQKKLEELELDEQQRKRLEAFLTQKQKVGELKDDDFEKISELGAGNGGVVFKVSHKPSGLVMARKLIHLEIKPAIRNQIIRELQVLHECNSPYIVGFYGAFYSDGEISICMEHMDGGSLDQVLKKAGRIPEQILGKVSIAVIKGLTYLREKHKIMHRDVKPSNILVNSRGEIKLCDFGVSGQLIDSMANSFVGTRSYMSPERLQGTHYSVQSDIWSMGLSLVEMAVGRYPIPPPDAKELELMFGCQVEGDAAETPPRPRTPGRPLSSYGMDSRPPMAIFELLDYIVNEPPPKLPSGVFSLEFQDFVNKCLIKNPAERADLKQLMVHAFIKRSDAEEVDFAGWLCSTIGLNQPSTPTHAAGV

[23] = target: Dual specificity mitogen-activated protein kinase kinase 5 (Homo sapiens) (UniProt Q13163); details: Compound concentration 1000.0 nM
[24] = target: Serine/threonine-protein kinase Nek4 (Homo sapiens) (UniProt P51957); details: Compound concentration 1000.0 nM
[25] = target: Cyclin-dependent kinase 17 (Homo sapiens) (UniProt Q00537); details: Compound concentration 1000.0 nM
Cyclin-dependent kinase 17 (Homo sapiens), sequence (Q00537 whole entry, looked up): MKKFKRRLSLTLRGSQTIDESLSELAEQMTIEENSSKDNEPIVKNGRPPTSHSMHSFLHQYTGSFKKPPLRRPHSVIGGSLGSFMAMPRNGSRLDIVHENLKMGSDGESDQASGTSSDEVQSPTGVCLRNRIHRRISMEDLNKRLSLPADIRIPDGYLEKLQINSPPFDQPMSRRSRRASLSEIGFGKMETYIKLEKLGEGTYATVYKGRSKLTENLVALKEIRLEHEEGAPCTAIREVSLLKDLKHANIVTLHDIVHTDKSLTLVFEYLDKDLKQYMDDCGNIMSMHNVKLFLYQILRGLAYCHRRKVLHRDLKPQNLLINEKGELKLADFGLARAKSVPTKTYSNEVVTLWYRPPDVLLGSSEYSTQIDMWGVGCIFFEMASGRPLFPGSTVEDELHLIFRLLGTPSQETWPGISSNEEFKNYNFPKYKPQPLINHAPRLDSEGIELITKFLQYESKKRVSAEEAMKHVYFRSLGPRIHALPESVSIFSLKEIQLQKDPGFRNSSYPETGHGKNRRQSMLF

[26] = target: 3-phosphoinositide-dependent protein kinase 1 (Homo sapiens) (UniProt O15530); details: Compound concentration 1000.0 nM
3-phosphoinositide-dependent protein kinase 1 (Homo sapiens), sequence (O15530 whole entry): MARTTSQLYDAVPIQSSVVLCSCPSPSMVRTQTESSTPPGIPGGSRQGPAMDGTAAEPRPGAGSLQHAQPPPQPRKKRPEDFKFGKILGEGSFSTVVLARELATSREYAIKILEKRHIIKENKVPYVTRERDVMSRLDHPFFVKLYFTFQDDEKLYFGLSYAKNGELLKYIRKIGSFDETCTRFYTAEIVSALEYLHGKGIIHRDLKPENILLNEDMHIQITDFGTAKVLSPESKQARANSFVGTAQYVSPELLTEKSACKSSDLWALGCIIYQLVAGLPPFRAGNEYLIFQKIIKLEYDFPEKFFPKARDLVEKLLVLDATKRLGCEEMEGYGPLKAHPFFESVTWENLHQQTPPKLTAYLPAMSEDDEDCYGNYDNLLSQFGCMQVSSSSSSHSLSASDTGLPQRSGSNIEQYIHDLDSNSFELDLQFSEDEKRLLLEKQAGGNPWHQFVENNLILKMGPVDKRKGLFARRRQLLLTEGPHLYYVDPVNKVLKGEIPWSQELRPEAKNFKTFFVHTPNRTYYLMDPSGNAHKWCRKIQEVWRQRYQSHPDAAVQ

[27] = target: Cyclin-dependent kinase 2 homolog (Plasmodium falciparum (isolate 3D7)) (UniProt P61075); details: Compound concentration 1000.0 nM
[28] = system: Phosphatidylinositol 4,5-bisphosphate 3-kinase catalytic subunit alpha isoform (Homo sapiens), P42336 [H1047Y]; details: Compound concentration 1000.0 nM
[29] = target: Serine/threonine-protein kinase D3 (Homo sapiens) (UniProt O94806); details: Compound concentration 1000.0 nM
[30] = target: Ribosomal protein S6 kinase alpha-2 (Homo sapiens) (UniProt Q15349); details: Compound concentration 1000.0 nM
[31] = target: SNF-related serine/threonine-protein kinase (Homo sapiens) (UniProt Q9NRH2); details: Compound concentration 1000.0 nM
[32] = target: SRSF protein kinase 3 (Homo sapiens) (UniProt Q9UPE1); details: Compound concentration 1000.0 nM
[33] = target: Serine/threonine-protein kinase TAO3 (Homo sapiens) (UniProt Q9H2K8); details: Compound concentration 1000.0 nM
Serine/threonine-protein kinase TAO3 (Homo sapiens), sequence (Q9H2K8 whole entry): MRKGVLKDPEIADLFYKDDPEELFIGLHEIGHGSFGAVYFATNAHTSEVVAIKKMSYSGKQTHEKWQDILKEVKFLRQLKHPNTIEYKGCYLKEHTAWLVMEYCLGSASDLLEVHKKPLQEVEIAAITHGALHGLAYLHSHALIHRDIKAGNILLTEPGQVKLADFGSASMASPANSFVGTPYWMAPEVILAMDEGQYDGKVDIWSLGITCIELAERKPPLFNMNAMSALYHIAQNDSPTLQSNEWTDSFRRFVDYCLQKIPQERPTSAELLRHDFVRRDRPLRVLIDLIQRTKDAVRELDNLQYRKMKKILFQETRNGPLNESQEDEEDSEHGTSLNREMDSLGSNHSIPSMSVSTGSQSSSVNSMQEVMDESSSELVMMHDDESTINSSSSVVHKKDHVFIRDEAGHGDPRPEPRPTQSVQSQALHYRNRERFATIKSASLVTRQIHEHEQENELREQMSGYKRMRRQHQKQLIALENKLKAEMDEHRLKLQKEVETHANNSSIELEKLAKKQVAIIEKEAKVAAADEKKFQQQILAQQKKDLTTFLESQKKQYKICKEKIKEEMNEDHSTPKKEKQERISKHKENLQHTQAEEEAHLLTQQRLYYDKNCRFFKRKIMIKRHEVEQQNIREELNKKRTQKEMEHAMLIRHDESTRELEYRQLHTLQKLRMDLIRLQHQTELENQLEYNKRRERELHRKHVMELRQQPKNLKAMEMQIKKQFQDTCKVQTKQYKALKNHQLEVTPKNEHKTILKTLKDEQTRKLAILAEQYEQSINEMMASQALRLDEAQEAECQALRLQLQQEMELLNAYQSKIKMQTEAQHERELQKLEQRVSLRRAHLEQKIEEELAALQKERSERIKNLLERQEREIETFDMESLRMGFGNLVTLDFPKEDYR

[34] = target: Serine/threonine-protein kinase TBK1 (Homo sapiens) (UniProt Q9UHD2); details: Compound concentration 1000.0 nM
[35] = target: Serine/threonine-protein kinase TNNI3K (Homo sapiens) (UniProt Q59H18); details: Compound concentration 1000.0 nM
Serine/threonine-protein kinase TNNI3K (Homo sapiens), sequence (Q59H18 whole entry): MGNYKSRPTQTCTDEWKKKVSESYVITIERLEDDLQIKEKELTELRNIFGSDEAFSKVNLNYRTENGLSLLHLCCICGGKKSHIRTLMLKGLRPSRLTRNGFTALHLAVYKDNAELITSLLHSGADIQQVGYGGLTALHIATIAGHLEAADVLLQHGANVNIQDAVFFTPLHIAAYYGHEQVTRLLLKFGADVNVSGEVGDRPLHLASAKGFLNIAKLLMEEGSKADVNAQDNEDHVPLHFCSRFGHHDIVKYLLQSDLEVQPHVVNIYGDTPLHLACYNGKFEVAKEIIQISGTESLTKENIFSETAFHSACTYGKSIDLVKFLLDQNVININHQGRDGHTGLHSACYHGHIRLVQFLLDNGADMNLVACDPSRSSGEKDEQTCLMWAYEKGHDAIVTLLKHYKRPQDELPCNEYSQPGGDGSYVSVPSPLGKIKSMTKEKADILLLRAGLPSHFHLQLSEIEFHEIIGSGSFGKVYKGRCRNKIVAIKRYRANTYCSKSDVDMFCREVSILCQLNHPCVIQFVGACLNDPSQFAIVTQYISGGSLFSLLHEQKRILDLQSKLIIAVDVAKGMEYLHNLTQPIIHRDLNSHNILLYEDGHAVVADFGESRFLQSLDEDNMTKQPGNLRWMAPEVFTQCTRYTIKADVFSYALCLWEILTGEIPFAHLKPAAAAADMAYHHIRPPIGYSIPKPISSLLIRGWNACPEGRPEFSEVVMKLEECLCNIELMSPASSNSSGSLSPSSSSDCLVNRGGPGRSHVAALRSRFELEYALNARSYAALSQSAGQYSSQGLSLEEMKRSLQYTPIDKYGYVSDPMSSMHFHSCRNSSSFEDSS

[36] = target: Tyrosine-protein kinase Yes (Homo sapiens) (UniProt P07947); details: Compound concentration 1000.0 nM
[37] = target: T1, 5-hydroxytryptamine receptor 2C (Homo sapiens) (UniProt P28335); details: Compound concentration 10.0 uM
T1 sequence (whole entry): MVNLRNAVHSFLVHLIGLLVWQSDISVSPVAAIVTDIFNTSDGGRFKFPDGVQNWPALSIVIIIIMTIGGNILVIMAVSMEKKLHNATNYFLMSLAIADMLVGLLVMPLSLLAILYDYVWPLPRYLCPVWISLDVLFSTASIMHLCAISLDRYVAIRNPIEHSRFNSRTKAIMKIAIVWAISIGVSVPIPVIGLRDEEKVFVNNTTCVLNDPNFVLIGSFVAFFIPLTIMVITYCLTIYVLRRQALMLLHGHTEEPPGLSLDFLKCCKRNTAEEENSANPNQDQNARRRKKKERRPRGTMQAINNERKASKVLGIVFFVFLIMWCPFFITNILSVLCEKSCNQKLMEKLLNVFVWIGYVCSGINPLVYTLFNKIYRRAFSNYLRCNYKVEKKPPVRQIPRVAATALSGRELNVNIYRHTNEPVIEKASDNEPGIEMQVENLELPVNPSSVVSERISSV

[38] = target: D(1B) dopamine receptor (Homo sapiens) (UniProt P21918); details: Compound concentration 10.0 uM

CN(C)CC#Cc1ccc(OCCCc2sc(N3CCc4cccc(C(=O)Nc5nc6ccccc6s5)c4C3)nc2C(=O)O)c(F)c1 [A-1155463]
inactive: residual activity [1] 93% | residual activity [2] 96% | residual activity [3] 72% | residual activity [4] 98% | residual activity [5] 87% | residual activity [6] 69% | residual activity [7] 100% | residual activity [8] 96% | residual activity [9] 100% | residual activity [10] 100% | residual activity [11] 98% | residual activity [12] 99% | residual activity [13] 100% | residual activity [14] 100% | residual activity [15] 100% | residual activity [16] 100% | residual activity [17] 71% | residual activity [18] 96% | residual activity [19] 96% | residual activity [20] 100% | residual activity [21] 100% | residual activity [22] 100% | residual activity [23] 100% | residual activity [24] 98% | residual activity [25] 99% | residual activity [26] 100% | residual activity [27] 100% | residual activity [28] 100% | residual activity [29] 93% | residual activity [30] 94% | residual activity [31] 100% | residual activity [32] 100% | residual activity [33] 100% | residual activity [34] 100% | residual activity [35] 100% | residual activity [36] 100% | inhibition [37] 1.97% | inhibition [38] 40.8%
